The record followed here is patent US10047096B2, “Substituted pyridobenzodiazepinone-derivatives and use thereof” (Bayer Pharma Aktiengesellschaft, priority 2014, dated 2018).

Structures are written as SMILES. Where a name gives a salt, the structure may show the parent alone.

human PDGFRβ, sequence (P09619 561-1106): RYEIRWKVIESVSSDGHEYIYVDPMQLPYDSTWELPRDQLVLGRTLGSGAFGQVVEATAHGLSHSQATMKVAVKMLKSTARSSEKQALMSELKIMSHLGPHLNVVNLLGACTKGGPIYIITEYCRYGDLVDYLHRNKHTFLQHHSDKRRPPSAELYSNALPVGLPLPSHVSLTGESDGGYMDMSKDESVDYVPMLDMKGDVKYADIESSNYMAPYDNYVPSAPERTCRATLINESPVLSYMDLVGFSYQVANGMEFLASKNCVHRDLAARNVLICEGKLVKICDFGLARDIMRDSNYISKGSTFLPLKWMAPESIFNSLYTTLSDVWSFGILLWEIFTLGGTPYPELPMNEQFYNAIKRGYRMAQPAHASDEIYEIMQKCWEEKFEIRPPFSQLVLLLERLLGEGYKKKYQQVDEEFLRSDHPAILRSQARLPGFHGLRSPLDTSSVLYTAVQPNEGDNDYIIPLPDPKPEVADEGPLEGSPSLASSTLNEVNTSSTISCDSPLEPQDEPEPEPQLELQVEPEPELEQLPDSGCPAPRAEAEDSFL

The first assay concerns the target human PDGFRβ (Homo sapiens (Human), UniProt P09619). As to the kind of experiment: PDGFRβ kinase assay (PDGFRβ-HTRF). In kind it is biochemical. To be noted: 10 μM ATP; some mean values from multiple determinations. In short, it runs like this: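 GST-fused human PDGFRβ fragment (R561-L1106) from Sf9 cells was preincubated 15 min with compound in 50 mM HEPES pH 7.5, 10 mM MgCl2, 2.5 mM DTT, 0.01% Triton X-100; substrate was biotinylated poly-Glu,Tyr (4:1).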
`Cc1cc(F)c(Nc2ccnc3c2C(=O)Nc2cc(C(=O)N[C@H]4CC[C@H](O)CC4)ccc2N3)cc1O` [Example 180, 4-[(2-Fluoro-5-hydroxy-4-methylphenyl)amino]-N-(trans-4-hydroxycyclohexyl)-5-oxo-6,11-dihydro-5H-pyrido[2,3-b][1,5]benzodiazepine-8-carboxamide] yielded an IC50 of 2.43 nM.
Turning to `Cc1ccc(O)cc1Nc1ccnc2c1C(=O)Nc1cc(CNC3CC3)ccc1N2` [Example 151], the IC50 was found to be 3.71 nM.
`COc1cc(O)cc(Nc2ccnc3c2C(=O)Nc2cc(C#N)ccc2N3)c1` [Example 9, 4-[(3-Hydroxy-5-methoxyphenyl)amino]-5-oxo-6,11-dihydro-5H-pyrido[2,3-b][1,5]benzodiazepine-8-carbonitrile] registered an IC50 of 3.83 nM.
The same measure, in the same setting: the same measure for `Cc1cc(F)c(Nc2ccnc3c2C(=O)Nc2cc(CN4CC[C@@H](N)C4)ccc2N3)cc1O` [Example 216, 8-{[(3R)-3-Aminopyrrolidin-1-yl]methyl}-4-[(2-fluoro-5-hydroxy-4-methylphenyl)amino]-6,11-dihydro-5H-pyrido[2,3-b][1,5]benzodiazepin-5-one]: 1.12 nM.
Compound `Cc1ccc(O)cc1Nc1ccnc2c1C(=O)Nc1cc(CNCC(C)(C)C)ccc1N2` [Example 142] returned an IC50 of 2.11 nM.
Regarding `Cc1ccc(O)cc1Nc1ccnc2c1C(=O)Nc1cc(CNC3CCOC3)ccc1N2` (stereo not drawn) [Example 99], inhibition was half-maximal at 2.97 nM (IC50).
Same read-out and setting: under `COC1CCCN(Cc2ccc3c(c2)NC(=O)c2c(Nc4cc(O)c(C)cc4F)ccnc2N3)C1` (racemic) [Example 66, rac-4-[(2-Fluoro-5-hydroxy-4-methylphenyl)amino]-8-[(3-methoxypiperidin-1-yl)methyl]-6,11-dihydro-5H-pyrido[2,3-b][1,5]benzodiazepin-5-one] stands 3.75 nM.
On to `CCCC1CCN(Cc2ccc3c(c2)NC(=O)c2c(Nc4cc(O)c(C)cc4F)ccnc2N3)CC1` [Example 54, 4-[(2-Fluoro-5-hydroxy-4-methylphenyl)amino]-8-[(4-propylpiperidin-1-yl)methyl]-6,11-dihydro-5H-pyrido[2,3-b][1,5]benzodiazepin-5-one], for which the IC50 stood at 6.51 nM.
On the same count and under the same terms, under `Cc1ccc(O)cc1Nc1ccnc2c1C(=O)Nc1cc(CNC3CCC3)ccc1N2` [Example 20, 8-[(Cyclobutylamino)methyl]-4-[(5-hydroxy-2-methylphenyl)amino]-6,11-dihydro-5H-pyrido[2,3-b][1,5]benzodiazepin-5-one] stands 2.89 nM.
For `Cc1ccc(O)cc1Nc1ccnc2c1C(=O)Nc1cc(CNC3CCCC3)ccc1N2` [Example 154], the concentration for half-maximal inhibition (IC50) is 2.1 nM.
The same measure, in the same setting: under `CCN(CC)Cc1ccc2c(c1)NC(=O)c1c(Nc3cc(O)ccc3C)ccnc1N2` [Example 39, 8-[(Diethylamino)methyl]-4-[(5-hydroxy-2-methylphenyl)amino]-6,11-dihydro-5H-pyrido[2,3-b][1,5]benzodiazepin-5-one] stands 1.86 nM; under `Cc1cc(F)c(Nc2ccnc3c2C(=O)Nc2cc(CN[C@H]4C[C@H](C(=O)O)C4)ccc2N3)cc1O` [Example 195, trans-3-[({4-[(2-Fluoro-5-hydroxy-4-methylphenyl)amino]-5-oxo-6,11-dihydro-5H-pyrido[2,3-b][1,5]benzodiazepin-8-yl}methyl)amino]cyclobutanecarboxylic acid], 1.56 nM.
`CCN(CCN)Cc1ccc2c(c1)NC(=O)c1c(Nc3cc(O)c(C)cc3F)ccnc1N2` [Example 200, 8-{[(2-Aminoethyl)(ethyl)amino]methyl}-4-[(2-fluoro-5-hydroxy-4-methylphenyl)amino]-6,11-dihydro-5H-pyrido[2,3-b][1,5]benzodiazepin-5-one]: the IC50 amounted to 0.727 nM.
On the same count and under the same terms, the same measure for `Cc1cc(F)c(Nc2ccnc3c2C(=O)Nc2cc(C(=O)N4CCC(CCO)CC4)ccc2N3)cc1O` [Example 161, 4-[(2-Fluoro-5-hydroxy-4-methylphenyl)amino]-8-{[4-(2-hydroxyethyl)piperidin-1-yl]carbonyl}-6,11-dihydro-5H-pyrido[2,3-b][1,5]benzodiazepin-5-one]: 10.7 nM; for `Cc1ccc(O)cc1Nc1ccnc2c1C(=O)Nc1cc(CNCCC(F)(F)F)ccc1N2` [Example 115]: 3.93 nM; for `Cc1cc(F)c(Nc2ccnc3c2C(=O)Nc2cc(C(=O)O)ccc2N3)cc1O` [Example 79, 4-[(2-Fluoro-5-hydroxy-4-methylphenyl)amino]-5-oxo-6,11-dihydro-5H-pyrido[2,3-b][1,5]benzodiazepine-8-carboxylic acid]: 213 nM.
On the same count and under the same terms, the same measure for `Cc1cc(F)c(Nc2ccnc3c2C(=O)Nc2cc(CN4CCCC(O)(c5ccccc5)C4)ccc2N3)cc1O` (racemic) [Example 73, rac-4-[(2-Fluoro-5-hydroxy-4-methylphenyl)amino]-8-[(3-hydroxy-3-phenylpiperidin-1-yl)methyl]-6,11-dihydro-5H-pyrido[2,3-b][1,5]benzodiazepin-5-one]: 1.98 nM; for `Cc1cc(F)c(Nc2ccnc3c2C(=O)Nc2cc(CN4CCCC(C(N)=O)C4)ccc2N3)cc1O` (racemic) [Example 57, rac-1-({4-[(2-Fluoro-5-hydroxy-4-methylphenyl)amino]-5-oxo-6,11-dihydro-5H-pyrido[2,3-b][1,5]benzodiazepin-8-yl}methyl)piperidine-3-carboxamide]: 1.66 nM; for `CCN(CC)C(=O)c1ccc2c(c1)NC(=O)c1c(Nc3cc(O)c(C)cc3F)ccnc1N2` [Example 84, N,N-Diethyl-4-[(2-fluoro-5-hydroxy-4-methylphenyl)amino]-5-oxo-6,11-dihydro-5H-pyrido[2,3-b][1,5]benzodiazepine-8-carboxamide]: 14.6 nM.
Regarding `O=C1Nc2cc(CN3CCC(O)CC3)ccc2Nc2nccc(Nc3cc(O)c(Cl)cc3F)c21` [Example 175, 4-[(4-Chloro-2-fluoro-5-hydroxyphenyl)amino]-8-[(4-hydroxypiperidin-1-yl)methyl]-6,11-dihydro-5H-pyrido[2,3-b][1,5]benzodiazepin-5-one], inhibition was half-maximal at 1.26 nM (IC50).
`CCN(CCN(C)C)Cc1ccc2c(c1)NC(=O)c1c(Nc3cc(O)c(C)cc3F)ccnc1N2` [Example 199, 8-({[2-(Dimethylamino)ethyl](ethyl)amino}methyl)-4-[(2-fluoro-5-hydroxy-4-methylphenyl)amino]-6,11-dihydro-5H-pyrido[2,3-b][1,5]benzodiazepin-5-one] displayed a concentration for half-maximal inhibition (IC50) of 1.31 nM.
The same measure, in the same setting: under `COc1ccc(NCc2ccc3c(c2)NC(=O)c2c(Nc4cc(O)ccc4C)ccnc2N3)cc1F` [Example 107] stands 18.4 nM.
`Cc1ccc(O)cc1Nc1ccnc2c1C(=O)Nc1cc(CNC(C)C(C)C)ccc1N2` (stereo not drawn) [Example 157] registered an IC50 of 3.4 nM.
As for `Cc1ccc(O)cc1Nc1ccnc2c1C(=O)Nc1cc(CNCCn3ccnn3)ccc1N2` [Example 97], the IC50 was 2.45 nM.
Compound `Cc1ccc(O)cc1Nc1ccnc2c1C(=O)Nc1cc(CNC3CCS(=O)(=O)C3)ccc1N2` (stereo not drawn) [Example 113] displayed an IC50 of 3.6 nM.
On to `Cc1ccc(O)cc1Nc1ccnc2c1C(=O)Nc1cc(C#N)ccc1N2` [Example 1, 4-[(5-Hydroxy-2-methylphenyl)amino]-5-oxo-6,11-dihydro-5H-pyrido[2,3-b][1,5]benzodiazepine-8-carbonitrile], for which half-maximal inhibition (IC50) was put at 5.43 nM.
In the case of `Cc1cc(F)c(Nc2ccnc3c2C(=O)Nc2cc(CNC4CCC4)ccc2N3)cc1O` [Example 188, 8-[(Cyclobutylamino)methyl]-4-[(2-fluoro-5-hydroxy-4-methylphenyl)amino]-6,11-dihydro-5H-pyrido[2,3-b][1,5]benzodiazepin-5-one], it took 1.75 nM to reach half-maximal inhibition (IC50).
Still for that read-out and setting: the same measure for `Cc1ccc(O)cc1Nc1ccnc2c1C(=O)Nc1cc(CNCCC(=O)N(C)C)ccc1N2` [Example 143]: 5.55 nM.
On the same count and under the same terms, the same measure for `CCCOC1CCCN(Cc2ccc3c(c2)NC(=O)c2c(Nc4cc(O)c(C)cc4F)ccnc2N3)C1` (racemic) [Example 68, rac-4-[(2-Fluoro-5-hydroxy-4-methylphenyl)amino]-8-[(3-propoxypiperidin-1-yl)methyl]-6,11-dihydro-5H-pyrido[2,3-b][1,5]benzodiazepin-5-one]: 1.85 nM; for `N#Cc1ccc2c(c1)NC(=O)c1c(Nc3cc(O)c(Cl)cc3F)ccnc1N2` [Example 37, 4-[(4-chloro-2-fluoro-5-hydroxyphenyl)amino]-5-oxo-6,11-dihydro-5H-pyrido[2,3-b][1,5]benzodiazepine-8-carbonitrile]: 4.6 nM; for `Cc1ccc(O)cc1Nc1ccnc2c1C(=O)Nc1cc(CN3CCN(CCO)CC3)ccc1N2` [Example 44, 8-{[4-(2-Hydroxyethyl)piperazin-1-yl]methyl}-4-[(5-hydroxy-2-methylphenyl)amino]-6,11-dihydro-5H-pyrido[2,3-b][1,5]benzodiazepin-5-one]: 19.8 nM.
On the same count and under the same terms, under `Cc1ccc(O)cc1Nc1ccnc2c1C(=O)Nc1cc(CNC(C)C3CC=CCC3)ccc1N2` (stereo not drawn) [Example 100] stands 1.66 nM; under `Cc1ccc(O)cc1Nc1ccnc2c1C(=O)Nc1cc(CNCCN(C)C)ccc1N2` [Example 156], 3.31 nM; under `Cc1cc(F)c(Nc2ccnc3c2C(=O)Nc2cc(C(N)=O)ccc2N3)cc1O` [Example 80, 4-[(2-Fluoro-5-hydroxy-4-methylphenyl)amino]-5-oxo-6,11-dihydro-5H-pyrido[2,3-b][1,5]benzodiazepine-8-carboxamide], 7.44 nM.
The compound `Cc1cc(F)c(Nc2ccnc3c2C(=O)Nc2cc(CN[C@@H](CO)Cc4cnc[nH]4)ccc2N3)cc1O` [Example 184, 4-[(2-Fluoro-5-hydroxy-4-methylphenyl)amino]-8-({[(2R)-1-hydroxy-3-(1H-imidazol-5-yl)propan-2-yl]amino}methyl)-6,11-dihydro-5H-pyrido[2,3-b][1,5]benzodiazepin-5-one] gave an IC50 of 1.62 nM.

Staying with this assay, now noted: 10 μM ATP; some mean values from multiple determinations; acetic acid salt.
`Cc1cc(F)c(Nc2ccnc3c2C(=O)Nc2cc(CNC4CCCC4)ccc2N3)cc1O` [Example 34, 8-[(Cyclopentylamino)methyl]-4-[(2-fluoro-5-hydroxy-4-methylphenyl)amino]-6,11-dihydro-5H-pyrido[2,3-b][1,5]benzodiazepin-5-one acetic acid salt]: the half-maximal inhibitory concentration (IC50) stood at 5.06 nM.
